The record followed here is ChEMBL document CHEMBL1158963, “Taxinine M, a new tetracyclic taxane from Taxus brevifolia” (J Nat Prod, 1991).

The structures appear in SMILES notation. ≈ marks a conversion by molar mass, not a printed value.

This series in a line: Toxicity in brine shrimp after 24 hrs. It counts as organism-based. The conditions noted are these: artemia, in vivo.
`C/C=C(\C)C(=O)N[C@@H](c1ccccc1)[C@@H](O)C(=O)O[C@H]1C[C@@]2(O)[C@@H](OC(=O)c3ccccc3)[C@@H]3[C@]4(OC(C)=O)CO[C@@H]4C[C@H](O)[C@@]3(C)C(=O)[C@H](OC(C)=O)C(=C1C)C2(C)C` [CEPHALOMANNINE]: the LC50 at 24 h is 0.81 µg/mL (≈ 0.974 µM).

Take `CC(=O)O[C@H]1C(=O)[C@@]2(C)[C@H]([C@H](OC(=O)c3ccccc3)[C@]3(O)C[C@H](OC(=O)[C@H](O)[C@@H](NC(=O)c4ccccc4)c4ccccc4)C(C)=C1C3(C)C)[C@]1(OC(C)=O)CO[C@@H]1C[C@@H]2O` [PACLITAXEL]: the LC50 at 24 h stood at 0.28 µg/mL (≈ 0.328 µM).

`C=C1[C@@H](O)C[C@H](OC(C)=O)[C@@]2(COC(=O)c3ccccc3)[C@@H](OC(C)=O)[C@H](OC(C)=O)[C@@]3(O)[C@]4(C)OC[C@]3(C)C(CC4=O)[C@@H](OC(C)=O)[C@H]12` [TAXININE M] came in with an LC50 at 24 h of 620 µg/mL (≈ 903 µM).
